Results taken from paper PMC3598492, “Cannabinoid receptor type 2 (CB2)-selective N-aryl-oxadiazolyl-propionamides: synthesis, radiolabelling, molecular modelling and biological evaluation” (Organic and Medicinal Chemistry Letters, 2012).

How the values were obtained:
[1] = molecular target: T1, CB2 receptors in mouse spleen tissue (Mus musculus, UniProt P47936); assay: Autoradiographic displacement of [3H]CP55,940 on coronal mouse spleen sections; format: binding; conditions: read-out: Fractional occupancy of [3H]CP55,940 binding sites calculated by Gaddum equation
T1 construct: 12-μm-thick coronal sections obtained from the spleens of three animals; from tissue; host or cells: spleen sections of female CD-1 mice
T1 sequence (P47936 whole entry): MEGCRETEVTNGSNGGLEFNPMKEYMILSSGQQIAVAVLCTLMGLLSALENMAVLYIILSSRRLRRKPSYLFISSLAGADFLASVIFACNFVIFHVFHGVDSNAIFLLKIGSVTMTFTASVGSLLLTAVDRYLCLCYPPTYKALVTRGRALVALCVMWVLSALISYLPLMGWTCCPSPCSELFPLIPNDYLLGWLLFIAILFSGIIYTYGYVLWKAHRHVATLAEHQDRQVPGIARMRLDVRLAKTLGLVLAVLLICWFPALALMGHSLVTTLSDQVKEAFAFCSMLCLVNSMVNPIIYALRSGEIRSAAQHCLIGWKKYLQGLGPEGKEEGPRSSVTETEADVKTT
Experimental: Animal experiments were performed under procedures approved by the State of Saxony Animal Care and Use Committee and conducted in accordance with the German Law for the Protection of Animals. Female CD-1 mice (10 to 12 weeks old, 20 to 25 g), obtained from the Medizinisch-Experimentelles Zentrum der Universität Leipzig (Leipzig, Germany), were used for the experiments.
The animals were anesthetized and sacrificed, and their spleens were rapidly removed and frozen in isopentane at −35°C. The spleens were brought to −15°C in a cryostat (Microm International GmbH, Walldorf, Germany), and a series of 12-μm-thick coronal sections obtained from the spleens of three animals were collected in parallel on microscopic glass slides. The sections were dried at room temperature and stored at −35°C until they were processed for receptor binding autoradiography.
For autoradiographic experiments, the slides were brought to room temperature, dried in a stream of cold air, pre-incubated in a binding buffer (50 mM TRIS (pH 7.4) at 21°C, 5% BSA) for 15 min at room temperature and dried again in a stream of cold air. […] Samples were washed twice for 30 min at 4°C in 50 mM TRIS (pH 7.4) at 4°C, containing 1% BSA, dipped briefly in ice-cold deionized water (5 s), dried in a stream of cold air and exposed along with [^3H] standards (Amersham/GE Healthcare, Piscataway, NJ, USA) for 14 days to [^3H]-sensitive screen plates (Fuji Photo Film, Co. Ltd., Tokyo, Japan).
The image plates were analysed using a BAS-1800II system bioimaging analyser (Fuji Photo Film, Co. Ltd., Tokyo, Japan). Scan data were visualized and processed by computer-assisted microdensitometry (Aida version 2.31, Raytest Isotopenmessgeräte GmbH, Straubenhardt, Germany). Irregular regions of interest (ROIs) were drawn on selected areas of the spleen labelled as red pulp (low-density binding) and white pulp (high-density binding) according to Lynn and Herkenham and Massi et al..

[2] = molecular target: T2, hCB1 (Homo sapiens, UniProt P21554); assay: Competitive [3H]CP55,940 binding on membrane homogenates of hCB1-CHO cells; conditions: hCB1-CHO; read-out: Ki hCB1
T2 construct: host or cells: CHO (hCB1-CHO), crude membrane homogenates
T2 sequence (P21554 whole entry): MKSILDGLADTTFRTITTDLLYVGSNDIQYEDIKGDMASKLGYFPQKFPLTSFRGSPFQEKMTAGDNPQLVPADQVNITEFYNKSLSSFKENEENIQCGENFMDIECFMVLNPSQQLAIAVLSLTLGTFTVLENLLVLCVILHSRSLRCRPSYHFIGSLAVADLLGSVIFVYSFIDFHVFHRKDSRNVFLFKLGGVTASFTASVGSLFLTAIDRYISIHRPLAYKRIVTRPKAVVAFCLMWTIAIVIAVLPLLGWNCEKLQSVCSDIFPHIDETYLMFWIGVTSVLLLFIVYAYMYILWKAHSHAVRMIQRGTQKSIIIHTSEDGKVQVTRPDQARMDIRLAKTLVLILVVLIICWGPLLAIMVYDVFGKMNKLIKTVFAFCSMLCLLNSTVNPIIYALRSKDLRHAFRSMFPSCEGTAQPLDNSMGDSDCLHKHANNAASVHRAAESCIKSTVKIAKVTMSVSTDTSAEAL
Experimental: (§1) CHO cell lines stably transfected with human CB1 (hCB1-CHO; obtained from Euroscreen, Gosselies, Belgium) or human CB2 (hCB2-CHO; obtained from Paul L. Prather, Department of Pharmacology and Toxicology, College of Medicine, University of Arkansas for Medical Sciences, USA) were cultured in Ham's F12 medium or Dulbecco's modified Eagle's medium (DMEM) with 10% fetal calf serum, 100 IU/mL penicillin, 100 μg/mL streptomycin and 250 or 400 μg/mL of the selection antibiotic Geneticin (G418), respectively. The cells were cultured in a humidified atmosphere with 5% CO2 at 37°C. Confluent cell layers of 175-cm^2 flasks were scraped; cells were harvested by centrifugation (800 rpm, 3 min), counted by trypan blue staining, suspended in 200 μL of 50 mM tris(hydroxymethyl)aminomethane (TRIS; pH 7.4) at 4°C and stored at −32°C until the binding experiment.
(§2) Competitive binding experiments were performed with crude membrane homogenates obtained from hCB1-CHO or hCB2-CHO cells as described above. […] Incubations were terminated by rapid filtration through a GF-B glass fibre filter pre-incubated for 90 min at room temperature in freshly prepared 0.5% polyvinylpyrrolidone + 0.1% Tween 20 solution using a 48-well cell harvester (Brandel, Gaithersburg, MD, USA).
Binding data were analysed using GraphPad Prism version 2.01 (GraphPad Software, Inc., San Diego, CA, USA) by non-linear regression to provide estimates of the half maximal inhibitory concentration (IC50) values and the […]. […] The corresponding inhibition constants (Ki) of test compounds were derived from the IC50 values using the Cheng-Prusoff equation [49]. All binding experiments were performed in triplicates, and data are given as mean values from independent experiments.

[3] = molecular target: T3, hCB2 (Homo sapiens, UniProt P34972); assay: Competitive [3H]CP55,940 binding on membrane homogenates of hCB2-CHO cells
T3 construct: host or cells: CHO (hCB2-CHO), crude membrane homogenates
T3 sequence (P34972 whole entry): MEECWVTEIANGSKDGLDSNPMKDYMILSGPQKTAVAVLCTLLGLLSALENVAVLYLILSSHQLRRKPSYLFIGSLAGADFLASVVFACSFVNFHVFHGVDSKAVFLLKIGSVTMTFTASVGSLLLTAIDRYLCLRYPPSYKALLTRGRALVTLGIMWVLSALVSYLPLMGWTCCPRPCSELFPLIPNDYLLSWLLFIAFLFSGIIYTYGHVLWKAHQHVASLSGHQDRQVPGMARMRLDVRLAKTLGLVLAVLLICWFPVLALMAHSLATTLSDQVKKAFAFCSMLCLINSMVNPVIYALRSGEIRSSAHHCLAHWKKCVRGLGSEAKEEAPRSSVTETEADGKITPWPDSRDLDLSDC
Experimental: as §1, §2
The corresponding inhibition constants (Ki) of test compounds were derived from the IC50 values using the Cheng-Prusoff equation [49]. All binding experiments were performed in triplicates, and data are given as mean values from independent experiments.

`CCn1c2ccccc2c2cc(NC(=O)CCc3nc(-c4ccc(F)cc4F)no3)ccc21` [Compound 6h, 3-(3-(2,4-Difluorophenyl)-1,2,4-oxadiazol-5-yl)-N-(9-ethyl-9H-carbazol-3-yl)propanamide] was tested, and the receptor occupancy at 1 µM [1] was 83%, the Ki [2] was > 1000 nM and the Ki [3] was 39.4 nM. For the same compound, the “Selectivity over hCB1” value ([3]; hCB2 versus hCB1) was “more than 1,000 fold”.
